Values joined by “and” are separate entries in the source; they are usually repeats but may differ in a detail not shown here. Equal values may be shown once.
Legend:
[1] = tested on: human bone marrow stem cells; assay: Engraftment of ex vivo expanded hematopoietic progenitor cells in BNX-XID mice
Text: The inventors also investigated the effect of MA on engraftment of human bone marrow stem cells [CD34^+, CD38″ cells, long term cultures after 4 mos, and stromal free cultures] ex vivo expanded hematopoietic progenitor cells in Rats irradiated [Sprague DAwley, 450 Rad] and immunodeficient mice [SCID or BNX-XID mice].
Measurement of short-term hematopoietic reconstitution kinetics and long term repopulating ability. Just prior to implantation, SCID, BNX-XID-immunodeficient mice and Sprague Dawley rats were exposed to 450 rad total body γ-irradiation. […] But the SCID and BNX-XID immunodeficient mice were repopulated by the cultured, treated human cells.

Ewing's sarcoma = assay: Confocal microscopy apoptosis; type: cell-based, human; conditions: 200 ng/ml; 24 hrs
Protocol: (§1) More extensive studies of the effects of MA and with truncated synthetic forms of MA (MAS) on a wide range of other human tumor cells were carried out using three-dimensional confocal microscopy. Cells were cultured and then seeded onto gelatinized glass chamber slides and incubated 24 hrs with the various test materials. The slides were then fixed with formalin and treated serially with Triton X-100 (0.01%) for 10 min at 25°, 0.4 ug/ml fluorescein isothiocyanate (FITC)-labeled Phalloidin (Sigma Chem. Co.) at room temperature for 30 min to bind actin, washed with PBS and the DNA stained with Propidium iodide (PI) (0.5 ug·ml) (Sigma Chemical Co.), for 15 min. The stained slides were washed and mounted on slow fade (Molecular Probes, Inc., Eugene, Oreg.) and examined through a dual emission filter XF53 (Omega, Inc., Brattlesboro, Va.) by fluorescent microscopy. In some experiments only DNA staining was performed. In these instances Triton X-100 was not used. The slides were stained with PI and examined for cell morphology and chromatin degradation under 3D confocal microscopy.

gliobastoma HTB16 = assay: Confocal microscopy apoptosis; type: cell-based, human; conditions: 200 ng/ml; 24 hrs
Protocol: as §1

[2] = tested on: carcinoma of the lung HTB184; assay: Confocal microscopy apoptosis; type: cell-based, human; conditions: 200 ng/ml; 24 hrs
Protocol: as §1

[3] = tested on: prostate carcinoma cell line PC3; assay: Confocal microscopy apoptosis; type: cell-based, human; conditions: 200 ng/ml; 24 hrs
Protocol: as §1

carcinoma of the colon = assay: Confocal microscopy apoptosis; type: cell-based, human; conditions: 200 ng/ml; 24 hrs
Protocol: as §1

[4] = tested on: carcinoma of the breast HTB124; assay: Confocal microscopy apoptosis; type: cell-based, human; conditions: 200 ng/ml; 24 hrs
Protocol: as §1

melanoma HTB67 = assay: Confocal microscopy apoptosis; type: cell-based, human; conditions: 200 ng/ml; 24 hrs
Protocol: as §1

[5] = tested on: carcinoma of the pancreas CRL 1682; assay: Confocal microscopy apoptosis; type: cell-based, human; conditions: 200 ng/ml; 24 hrs
Protocol: as §1

[6] = tested on: prostate carcinoma cell line PC4; assay: Confocal microscopy apoptosis; type: cell-based, human; conditions: 200 ng/ml; 24 hrs
Protocol: as §1

fibrosarcoma 4TB166 = assay: Confocal microscopy apoptosis; type: cell-based, human; conditions: 200 ng/ml; 24 hrs
Protocol: as §1

[7] = tested on: leukemia and lymphoma cell lines: HUT78, DAVDI, HG, SULTAN, T-cell lymphoma; assay: Confocal microscopy apoptosis; type: cell-based, human; conditions: 200 ng/ml; 24 hrs
Protocol: as §1

KS Y-1 cells = assay: Confocal microscopy apoptosis; type: cell-based, human; conditions: 200 ng/ml; 24 hrs
Protocol: as §1

[8] = tested on: carcinoma of the kidney HTB46; assay: Confocal microscopy apoptosis; type: cell-based, human; conditions: 200 ng/ml; 24 hrs
Protocol: as §1

[9] = tested on: human primitive hematopoietic stem cells; assay: Long term cultures (LTC-IC, stroma-free) of CD34+, CD38− cells from human BMMC; type: cell-based
Protocol: In the human system, a long-term culture-initiating assay (LTC-IC) can be used to detect cells that can generate myeloid clonogenic cells (CFC/colony forming cells) in long-term cultures for a minimum of 5 weeks. Bone marrow stromal was produced by culturing 107 fresh BM-MNC in a T25 flash for at least 2 weeks in 5 mL stromal medium; 12.5% horse [HS] and 12.5% fetal calf serum [FCS]; both from hyclone [Logan, Utah], Iscove's modified Dulbecco's medium [IMDM, GIBCO-BRL], 2-mercaptoethanol [Sigma, st. Louis, Mo.], 10^−6 mol/L hydrocortisone [Sigma] and penicillin/streptomycine.
One or 2 days before co-cultures, bone marrow stroma was irradiated with 15Gy and plated at 7×10^3/cm^2 in 24-well plates to form pre-established stromal layers for the long-term cultures. Limiting dilution was 1 to 1000 CD34+ bone marrow/cord blood cells and equivalent aliquots, i.e., limiting dilutions of the cells grown in long-term cultures stroma-free cultures after 2 to 20 weeks were seeded on top of the irradiated bone marrow stroma in culture medium containing IMDM, 12.5% HS, 12.5% FCS, 2-mercptoethanol, and 10^−6 mon-hydrocortisone for 5 weeks LTC-IC assay period. Non-adherent cells were removed from the cultures, combined with the corresponding trypsinized adherent cells, washed and assayed for colony forming units (CFU-Cs) in methylcellulose medium containing 1.3% methylcellulose (Fluka Chemilka Biochemika, buck\hs, Switzerland), 30% FCS, EPO (3 U/ml), IL-3 (20 ng/ml), G-CSF (20 ng/ml), GM-CSF (20 ng/ml) and KL (c-kit, 50 ng/ml). These cultures were incubated at 37° C. and colonies were scored 2 to 3 weeks later. LTC-IC enumeration was based on the number of CFU-C scored in the limiting assays [LDA] and another technique.
Stroma-free long-term cultures were performed as follows. 2 to 10×10^3 CD34+/CD34^−CD38^− from bone marrow/CB/PBMC cells were cultured in quadrutriplicate flat bottomed 24 well plates in 1 ml to of IMDM supplemented with 10% FCS and the following cytokines: IL-3 (10 ng/ml), IL-6 (10 ng/ml), KL [c-kit 50 ng/ml, FL (50 ng/ml) and TPO (10 U/ml), which added, alone or in combination of two or more factors, to each series of microwells twice a week. The wells were grown at 37° C. and share a number of features with in vivo murine long-term repopulating cells. These include assay for cobblestone areas colony forming cells (CAFC), high proliferative potentials colony-forming cells (HPP-CFC), CFU-GEMM, CFU-B1 (blast colony forming units).

[10] = LTC stroma free after 3 mos, n = 3

Q: “VVCNYRDVRFESIRLPGCPRGVNPVVSYAVALSCQ [MA]” was tested. Which CD4 [1] did it give?
A: 3%

Q: And the CD14 [1]?
A: 1%

Q: And the CD34 [1]?
A: 37%

Q: And the induction of apoptosis (Ewing's sarcoma)?
A: induced apoptosis

Q: And the induction of apoptosis (gliobastoma HTB16)?
A: induced apoptosis

Q: And the induction of apoptosis [2]?
A: induced apoptosis

Q: What about the induction of apoptosis [3] of the same sequence?
A: induced apoptosis

Q: What about the induction of apoptosis (carcinoma of the colon) of the same sequence?
A: induced apoptosis

Q: And the induction of apoptosis [4]?
A: induced apoptosis

Q: What about the induction of apoptosis (melanoma HTB67) of the same sequence?
A: induced apoptosis

Q: And the induction of apoptosis [5]?
A: induced apoptosis

Q: What about the induction of apoptosis [6] of the same sequence?
A: induced apoptosis

Q: What about the induction of apoptosis (fibrosarcoma 4TB166) of the same sequence?
A: induced apoptosis

Q: And the induction of apoptosis [7]?
A: induced apoptosis

Q: What about the induction of apoptosis (KS Y-1 cells) of the same sequence?
A: induced apoptosis

Q: What about the induction of apoptosis [8] of the same sequence?
A: induced apoptosis

Q: What about the BFU-e [9, 10] of the same sequence?
A: 161 ± 8

Q: What about the CFU-GM [9, 10] of the same sequence?
A: 198 ± 11

Q: And the CFU-Mixed [9, 10]?
A: 13 ± 3

Q: What about the T-CFC [9, 10] of the same sequence?
A: 199 ± 10

Q: What about the “CFU-GM: % of CD14” value ([9]; culture 3) of the same sequence?
A: 27%

Q: What about the “CFU-GM: % of CD68” value ([9]; culture 3) of the same sequence?
A: 22%

Q: And the “CD34+ cells” value ([9]; culture 3 (LTC stroma free treated with MA))?
A: 77.71%

Q: What about the “T colonies Rx MA: CD3+/CD4+” value ([9]; for 1, 2, and 3 (respectively)) of the same sequence?
A: 38% and 28% and 46%

Q: And the “T colonies Rx MA: CD3+/CD8+” value ([9]; for 1, 2, and 3 (respectively))?
A: 32% and 29% and 49%
